Results from patent US9630941B2 (priority 2008, dated 2017).

Columns and labels:
[1] = Chemical stability pH dependent at 25° C.; type: physicochemical
Experimental: B. Chemical Stability pH Dependent at 25° C.

[2] = Bioreversion: plasma stability, porcine plasma; type: in vitro ADME
[3] = Thermal stability, 120° C. for 10 min; type: physicochemical; conditions: for CBN content of the sample after heating / Drug remaining / THC content of the sample after heating / Drug remaining (%): 120° C. for 10 min; for Drug remaining (%): % of initial; for CBN content of the sample, initial / Initial, μg (drug itself) / THC content of the sample, initial: before heating
Experimental: C. Thermal Stability—120° C. for 10 min.

[4] = Porcine buccal tissue homogenate stability; type: in vitro ADME; conditions: protein concentration 2 mg/ml
Experimental: (§1) b. Porcine Buccal Tissue Homogenate Stability
(§2) Protein Concentration 2 mg/ml

[5] = Control (IPBS) stability for the buccal homogenate study; type: physicochemical
Experimental: as §1, §2

[6] = Aqueous solubility, pH dependent; type: physicochemical

Structure (SMILES) | First order rate constant ([1]; Buffer pH 5.0, 25° C.) [h⁻¹] | First order rate constant ([1]; Buffer pH 7.0, 25° C.) | K [2] | T1/2 [2] | Drug loading (%) [3] [%] | CBN content of the sample after heating [3] [µg] | Drug remaining [3] [µg] | THC content of the sample after heating [3] [µg] | Drug remaining (%) [3] | CBN content of the sample, initial [3] [µg] | Initial, μg (drug itself) [3] [µg] | THC content of the sample, initial [3] [µg] | Aqueous Solubility ([6]; H20) [µg/mL] | Aqueous Solubility ([6]; Water) [µM] | Aqueous Solubility ([6]; pH 1.2) [µg/mL] | Aqueous Solubility ([6]; pH 2) [µg/mL] | other results
CCCCCc1cc(OC(=O)CCCc2ccc(NC(=O)CCC(=O)O)cc2)c2c(c1)OC(C)(C)[C@@H]1CCC(C)=C[C@@H]21 [THC-APB-HS (14), THC-4(4-aminophenyl)butyrate-hemisuccinate] | 0.00368 | Stable | Stable | Stable | 96.66 ± 2.18 | 38.36 ± 9.70 | 1518.84 ± 34.38 | 0 | (104.81 ± 4.74) % | 47.63 ± 9.92 | 1449.90 ± 32.76 | 0 | – | – | – | – | First order rate constant ([1]; Buffer pH 9.0, 25° C.): Stable; First order rate constant ([1]; Water, 25° C.): 0.00481 h⁻¹
CCCCCc1cc(OC(=O)[C@@H](N)Cc2c[nH]c3ccccc23)c2c(c1)OC(C)(C)[C@@H]1CCC(C)=C[C@@H]21 [THC-Tryptophanate (10), Δ^9-THC-tryptophinate] | 0.00829 | 0.03803 h⁻¹ | 48.55 ± 5.90 ×10^−2 min^−1 | 1.44 ± 0.17 min | 89.84 ± 4.53 | 16.63 ± 2.63 | 1216.70 ± 32.88 | 96.10 ± 16.64 | (90.47 ± 7.00) % | 25.59 ± 2.26 | 1347.57 ± 67.93 | 97.38 ± 6.39 | – | – | – | – | K [4]: 9.06 ± 1.26 ×10^−3 min^−1; T1/2 [4]: 77.27 ± 10.73 min; K [5]: 0.77 ± 0.02 ×10^−3 min^−1
CCCCCc1cc(OC(=O)C(N)Cc2c[nH]c3ccccc23)c2c(c1)OC(C)(C)C1CCC(C)=CC21.O=C(O)CC(=O)O (stereo not shown) [THC-Tryptophanate Malonate] | – | – | – | – | – | – | – | – | – | – | – | – | 13.27 ± 14.72 | 8.02 ± 8.90 | 1.58 ± 0.19 | 4.65 ± 0.31 | Aqueous Solubility ([6]; pH 1.2, listed as THC-Tryptophan Malonate): 0.95 ± 0.12 µM; Aqueous Solubility ([6]; pH 2, listed as THC-Tryptophan Malonate): 2.81 ± 0.19 µM
CCCCCc1cc(OC(=O)[C@@H](N)C(C)C)c2c(c1)OC(C)(C)C1CCC(C)=CC21.O=C(O)CC(=O)O (stereo partly shown) [THC-Valinate malonate] | – | – | – | – | – | – | – | – | – | – | – | – | 1.21 ± 0.61 | 2.33 ± 1.19 | 53.63 ± 1.09 | 118.42 ± 5.07 | Aqueous Solubility ([6]; pH 1.2, listed as THC-Valine malonate): 103.61 ± 2.11 µM; Aqueous Solubility ([6]; pH 2, listed as THC-Valine malonate): 228.78 ± 9.79 µM; Aqueous Solubility ([6]; pH 3): 50.03 ± 1.80 µg/mL; Aqueous Solubility ([6]; pH 3, listed as THC-Valine malonate): 96.65 ± 3.49 µM; Aqueous Solubility ([6]; pH 4): 13.92 ± 1.56 µg/mL; Aqueous Solubility ([6]; pH 4, listed as THC-Valine malonate): 26.88 ± 3.01 µM; Aqueous Solubility ([6]; pH 5): 1.22 ± 0.00 µg/mL; Aqueous Solubility ([6]; pH 5, listed as THC-Valine malonate): 2.36 ± 0.01 µM; Aqueous Solubility ([6]; pH 6): 0.13 ± 0.02 µg/mL; Aqueous Solubility ([6]; pH 6, listed as THC-Valine malonate): 0.25 ± 0.04 µM; Aqueous Solubility ([6]; pH 7): 0.05 ± 0.02 µg/mL; Aqueous Solubility ([6]; pH 7, listed as THC-Valine malonate): 0.11 ± 0.03 µM; Aqueous Solubility ([6]; pH 8): 0.06 ± 0.00 µg/mL; Aqueous Solubility ([6]; pH 8, listed as THC-Valine malonate): 0.12 ± 0.01 µM; Aqueous Solubility ([6]; pH 9): 0.14 ± 0.02 µg/mL; Aqueous Solubility ([6]; pH 9, listed as THC-Valine malonate): 0.27 ± 0.03 µM
